We go through 16 compounds from PubChem BioAssay (NCI).

Among the test systems are OVCAR-8 ovarian; MALME-3M melanoma; SK-MEL-2 melanoma; ACHN renal; HT29 colon; SK-MEL-28 melanoma; NCI-H23 lung; NCI/ADR-RES ovarian; MDA-MB-435; HCC-2998 colon.
What all share (experiment): growth of human tumour cells (NCI), 48 h

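Interpolation was linear, between the two tested concentrations surrounding the appropriate level; five concentrations were tested over 48 hours in 96-well plates. At the GI50, growth is halved. At the TGI there is no net growth.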

Turning to `Cn1c(N/N=C/c2ccccc2)nc(-c2ccc3c(c2)OCO3)c(C#N)c1=O`, the TGI in the assay with OVCAR-8 ovarian was 90.6 µM; in the assay on MALME-3M melanoma, > 100 µM; in the assay on SK-MEL-2 melanoma, > 100 µM; in the assay on ACHN renal it was > 100 µM; in the assay on HT29 colon, > 100 µM; with SK-MEL-28 melanoma, > 100 µM. Besides, the TGI in the assay with NCI-H23 lung, in the assay with NCI/ADR-RES ovarian and in the assay with MDA-MB-435 was > 100 µM each time.
For the compound `O=C([CH-]C(=O)c1ccccc1)c1ccccc1.[C-]#[O+].[C-]#[O+].[Ir]`, the GI50 with OVCAR-8 ovarian is 45.4 µM; in the assay on MALME-3M melanoma, > 100 µM; in the assay with HCC-2998 colon it was > 100 µM; with SK-MEL-2 melanoma, > 100 µM; in the assay on HT29 colon it was 63.5 µM; in the assay on SK-MEL-28 melanoma it was 87 µM. Besides, the GI50 with NCI-H23 lung is 52.8 µM. In addition, the TGI in the assay on OVCAR-8 ovarian, in the assay with MALME-3M melanoma, in the assay with HCC-2998 colon, in the assay on SK-MEL-2 melanoma, in the assay with HT29 colon and with SK-MEL-28 melanoma was > 100 µM throughout. The TGI with NCI-H23 lung was > 100 µM.
With `CCC(=O)OC1CCn2c1nc1c2C(=O)C(C)=C(NC(C)=O)C1=O` (stereo not given), the TGI came out at 2.09 µM in the assay on OVCAR-8 ovarian; 2.96 µM in the assay with MALME-3M melanoma; 5.13 µM with HCC-2998 colon; 3.41 µM with SK-MEL-2 melanoma; 11.7 µM in the assay with ACHN renal; 3.59 µM in the assay with HT29 colon. In addition, the values for the TGI with SK-MEL-28 melanoma and in the assay with NCI-H23 lung were 3.76 µM and 3.49 µM, respectively.
For `CCOC(=O)/C=C/n1c2ccccc2c(=O)c2cc(OC)ccc21`, the TGI in the assay on OVCAR-8 ovarian, in the assay on MALME-3M melanoma, in the assay on HCC-2998 colon, in the assay with SK-MEL-2 melanoma, with ACHN renal and with HT29 colon was > 100 µM throughout. For the same compound, the TGI with SK-MEL-28 melanoma and in the assay with NCI-H23 lung was > 100 µM each time.
Take `O=c1oc2cc(O)ccc2c2[nH]c3cc(O)ccc3c12`: the TGI is 78.7 µM in the assay with OVCAR-8 ovarian; > 100 µM with MALME-3M melanoma; 57 µM in the assay on HCC-2998 colon; 50.2 µM in the assay on SK-MEL-2 melanoma; 62.5 µM in the assay on ACHN renal; > 100 µM in the assay on HT29 colon. The TGI with SK-MEL-28 melanoma was > 100 µM; in the assay with NCI-H23 lung it was 51.5 µM.
On to `N#C/C(=C\c1ccc(O)c(O)c1)c1c(C#N)c(N)nn1-c1ccccc1`, for which the TGI in the assay on OVCAR-8 ovarian was 29.2 µM; with MALME-3M melanoma, 26.8 µM; in the assay on HCC-2998 colon it was 26.4 µM; in the assay on SK-MEL-2 melanoma, 49.8 µM; with ACHN renal, 26.9 µM; with HT29 colon, 65.8 µM. The TGI in the assay with SK-MEL-28 melanoma was > 100 µM; in the assay with NCI-H23 lung it was 25.3 µM.
On to `COC(CNC(=O)CNC(=O)c1ccc(C(F)(F)F)cc1)OC`, for which the TGI with OVCAR-8 ovarian, in the assay with MALME-3M melanoma, in the assay on SK-MEL-2 melanoma, in the assay with ACHN renal, in the assay on HT29 colon and in the assay on NCI-H23 lung was > 100 µM in each case. Moreover, the TGI with NCI/ADR-RES ovarian and with MDA-MB-435 was > 100 µM in each case.
`Cc1cc(N(CCC#N)S(=O)(=O)c2ccccc2)ccc1C=Nc1cccc(C(=O)O)c1`: the TGI with OVCAR-8 ovarian, in the assay with MALME-3M melanoma, with HCC-2998 colon, in the assay on SK-MEL-2 melanoma, in the assay with ACHN renal and with HT29 colon was > 100 µM throughout. In addition, the TGI in the assay with SK-MEL-28 melanoma and with NCI-H23 lung was > 100 µM in each case.
In the case of `COc1ccc(CN(CCN(C)C)c2ccccn2)cc1` (tested in a mixture with another compound), the TGI with OVCAR-8 ovarian, with MALME-3M melanoma, with SK-MEL-2 melanoma, in the assay on ACHN renal, with HT29 colon and in the assay with SK-MEL-28 melanoma was > 100 µM throughout. In addition, the TGI with NCI-H23 lung is > 100 µM.
As to `CC(=O)c1ccc(N2C(=O)C3c4[nH]c5ccccc5c4C4CCC(C(C)(C)C)CC4C3C2=O)cc1` (stereo not given), the TGI with OVCAR-8 ovarian turned out to be 54.7 µM; with MALME-3M melanoma, 34.4 µM; with HCC-2998 colon, 35.8 µM; in the assay on ACHN renal, 87.9 µM; in the assay with HT29 colon, 32.6 µM; in the assay with SK-MEL-28 melanoma, 83.2 µM. The TGI in the assay on NCI-H23 lung amounted to 45.3 µM.
Consider `[N-]=[N+]=CC(=O)C1(C(=O)C=[N+]=[N-])CC1`, for which the TGI with OVCAR-8 ovarian, with MALME-3M melanoma, in the assay with HCC-2998 colon, in the assay with SK-MEL-2 melanoma, in the assay on ACHN renal and in the assay on HT29 colon was > 100 µM in each case. Besides, the TGI in the assay with SK-MEL-28 melanoma and with NCI-H23 lung was > 100 µM each time.
As to `CCN(CC)CC1CCCCN1CC(=O)N1c2cc(Cl)ccc2NC(=O)CC1C` (stereo not given), the TGI in the assay with OVCAR-8 ovarian, with MALME-3M melanoma, in the assay with HCC-2998 colon, with SK-MEL-2 melanoma, with ACHN renal and in the assay on SK-MEL-28 melanoma was > 100 µM in each case. In the assay on NCI-H23 lung, the TGI is > 100 µM.
With `COC1(OC)CC2C(=O)N(Cc3ccccc3)C1C(S(=O)(=O)c1ccccc1)C2C(C)S(=O)(=O)c1ccccc1` (stereo not given), the TGI in the assay on OVCAR-8 ovarian, in the assay on MALME-3M melanoma, in the assay with HCC-2998 colon, with SK-MEL-2 melanoma, with ACHN renal and in the assay with HT29 colon was > 100 µM throughout. For the same compound, the TGI in the assay on SK-MEL-28 melanoma and in the assay on NCI-H23 lung was > 100 µM throughout.
Regarding `CC1CC(=O)Nc2ccc(Cl)cc2N1C(=O)CN1CCC(CCCCN(C)C)CC1` (stereo not given), the TGI in the assay with OVCAR-8 ovarian, in the assay with MALME-3M melanoma, with HCC-2998 colon, in the assay on ACHN renal, with HT29 colon and with SK-MEL-28 melanoma was > 100 µM throughout. Further, the TGI with NCI-H23 lung is > 100 µM.
With `N/C(=N\N=C\c1cc2ccccc2s1)c1cnccn1`, the TGI with OVCAR-8 ovarian, in the assay on SK-MEL-2 melanoma, in the assay with ACHN renal, in the assay with HT29 colon, in the assay on SK-MEL-28 melanoma and with NCI-H23 lung was > 100 µM each time. Also, the TGI with NCI/ADR-RES ovarian and in the assay with MDA-MB-435 was > 100 µM each time.
With `Cc1ccc(S(=O)(=O)NC(=O)C2S(=O)(=O)OCCOS2(=O)=O)cc1`, the TGI in the assay on OVCAR-8 ovarian, with MALME-3M melanoma, in the assay on HCC-2998 colon, with SK-MEL-2 melanoma, in the assay with HT29 colon and in the assay on SK-MEL-28 melanoma was > 100 µM in each case. In the assay on NCI-H23 lung, the TGI is > 100 µM.
